Measured values reported in patent US20230146455A1, “TREATMENT OF INFLAMMATORY DISEASES WITH PEPTIDES AND PHARMACEUTICAL COMPOSITIONS” (Yuyu Pharma, Inc., priority 2020, published 2023).
Values joined by “and” are separate entries in the source; they are usually repeats but may differ in a detail not shown here. Equal values may be shown once. Where a SMILES comes first, the peptide text is derived from it. [ ]: non-standard residue; d: D form. Hyp = O=C(O)[C@@H]1C[C@@H](O)CN1

How the values were obtained:
[1] = tested on: IL-6; assay: Example 8 main study Luminex, LPS hPBMCs: IL-6; assay type: cell-based, human; settings: for IL-6 Concentration: single replicates (1st, 2nd, 3rd)
Procedure: (§1) Human PBMCs were pretreated with YY-101, YDE-011, YDE-043 or reference compound; Xiidra® at various concentration (ranging from […] to 500 nM) for 2 h before stimulation. An equal volume of 0.5% DMSO was used as a vehicle control. Then, the cells were treated with LPS at 5 ug/ml, which was selected based on the pilot study. The supernatants from treated cells were harvested at 24 h and placed in a 96 well for Luminex cytokine & chemokine profiling using a Luminex 200 multiplex assay (Luminex; R&D system, USA).
(§2) The main study arm with triplicate wells per group in a 24-well plate: • 1. Blank • 2. PBMC: 0.5% DMSO • 3. PBMC+LPS (5 ug/ml) • 4. PBMC+YY-101 500 nM • 5. PBMC+YY-101 50 nM • 6. PBMC+YY-101 5 nM • 7. PBMC+YY-101 0.5 nM • 8. PBMC+LPS (5 ug/ml)+Xiidra® 500 nM • 9. PBMC+LPS (5 ug/ml)+Xiidra® 50 nM • 10. PBMC+LPS (5 ug/ml)+Xiidra® 5 nM • 11. PBMC+LPS (5 ug/ml)+Xiidra® 0.5 nM • 12. PBMC+LPS (5 ug/ml)+Xiidra® 0.05 nM • 13. PBMC+LPS (5 ug/ml)+Xiidra® 0.005 nM • 14. PBMC+LPS (5 ug/ml)+YY-101 500 nM • 15. PBMC+LPS (5 ug/ml)+YY-101 50 nM • 16. PBMC+LPS (5 ug/ml)+YY-101 5 nM • 17. PBMC+LPS (5 ug/ml)+YY-101 0.5 nM • 18. PBMC+LPS (5 ug/ml)+YY-101 0.05 nM • 19. PBMC+LPS (5 ug/ml)+YY-101 0.005 nM • 20. PBMC+LPS (5 ug/ml)+YDE-011 500 nM • 21. PBMC+LPS (5 ug/ml)+YDE-011 50 nM • 22. PBMC+LPS (5 ug/ml)+YDE-011 5 nM • 23. PBMC+LPS (5 ug/ml)+YDE-011 0.5 nM • 24. PBMC+LPS (5 ug/ml)+YDE-011 0.05 nM • 25. PBMC+LPS (5 ug/ml)+YDE-011 0.005 nM • 26. PBMC+LPS (5 ug/ml)+YDE-043 500 nM • 27. PBMC+LPS (5 ug/ml)+YDE-043 50 nM • 28. PBMC+LPS (5 ug/ml)+YDE-043 5 nM • 29. PBMC+LPS (5 ug/ml)+YDE-043 0.5 nM • 30. PBMC+LPS (5 ug/ml)+YDE-043 0.05 nM • 31. PBMC+LPS (5 ug/ml)+YDE-043 0.005 nM
(§3) Multiplex assay was used to measure 30 cytokines and chemokines. The 1:200 diluted cell supernatant and serial dilution of the standard were dispensed into a 96 well plate at 50 ul/well. Then, the pre-mixed cocktail of antibody-coated magnetic beads was dispensed at 50 ul/well and incubated at room temperature for 2 h in a horizontal orbital microplate shaker at 800±500 rpm. The beads were washed using a magnetic device to prevent loss. The biotin-antibody was dispensed in 50 ul of each well and incubated at room temperature for 1 h in a shaker at 800±500 rpm. After washing, streptavidin-PE was added at 50 ul/well and incubated at room temperature for 30 min in a shaker under the same conditions. Finally, after washing, wash buffer (100 ul/well) was added to the plate and incubated in a shaker for 2 min. The Luminex™ 200 setting were set according to the manufacturer's protocol. The data was calculated with a standard five-parameter logistic nonlinear regression analysis of the data (xPonent software 4.2, USA). Results were presented as concentration (ng/ml or pg/ml).

[2] = tested on: Leptin; assay: Example 8 main study Luminex, LPS hPBMCs: Leptin; assay type: cell-based, human; settings: PBMC + LPS(5 ug/ml)
Procedure: as §1, §2, §3

[3] = PBMC + LPS(5 ug/ml) + test article 0.005 nM
[4] = PBMC + LPS(5 ug/ml) + test article 0.05 nM
[5] = PBMC + LPS(5 ug/ml) + test article 0.5 nM
[6] = PBMC + LPS(5 ug/ml) + test article 5 nM
[7] = PBMC + LPS(5 ug/ml) + test article 50 nM
[8] = PBMC + LPS(5 ug/ml) + test article 500 nM

SMILES: CC(C)C[C@H](NC(=O)[C@H](CCC(N)=O)NC(=O)CNC(=O)[C@@H]1C[C@@H](O)CN1)C(=O)NCC(=O)O [YDE-043] (H-[Hyp]GQLG-OH; N-terminus and C-terminus assumed)
- IL-6 Concentration, Mean [1, 3]: 17678.1 pg/mL
- IL-6 Concentration [1, 3]: 15726.2 pg/mL and 16772.5 pg/mL and 20535.6 pg/mL
- IL-6 Concentration, Mean [1, 4]: 14253.4 pg/mL
- IL-6 Concentration [1, 4]: 13386.9 pg/mL and 14716.3 pg/mL and 14657.0 pg/mL
- IL-6 Concentration, Mean [1, 5]: 14811.5 pg/mL
- IL-6 Concentration [1, 5]: 15322.2 pg/mL and 15084.6 pg/mL and 14027.7 pg/mL
- IL-6 Concentration, Mean [1, 6]: 16507.0 pg/mL
- IL-6 Concentration [1, 6]: 16380.0 pg/mL and 17224.5 pg/mL and 15916.4 pg/mL
- IL-6 Concentration, Mean [1, 7]: 16067.3 pg/mL
- IL-6 Concentration [1, 7]: 16962.8 pg/mL and 16570.3 pg/mL and 14668.8 pg/mL
- IL-6 Concentration, Mean [1, 8]: 14209.8 pg/mL
- IL-6 Concentration [1, 8]: 13873.4 pg/ml (2×) and 14882.6 pg/ml
- LPS-induced IL-6 (in words) ([1]; at as low as 5 μM, LPS 5 ug/mL 24 hrs): significantly reduced
- Leptin Concentration (pg/ml), Mean ([2]; test article 0.005 nM): 19724.6 pg/mL
- Leptin Concentration (pg/ml), single replicates ([2]; test article 0.005 nM): 18547.4 pg/ml (2×) and 22079.2 pg/ml
- Leptin Concentration (pg/ml), Mean ([2]; test article 0.05 nM): 10481.4 pg/mL
- Leptin Concentration (pg/ml), single replicates ([2]; test article 0.05 nM): 10481.4 pg/ml and <98.95 pg/ml (2×)
- Leptin Concentration (pg/ml), Mean ([2]; test article 0.5 nM): 15646.1 pg/mL
- Leptin Concentration (pg/ml), single replicates ([2]; test article 0.5 nM): 12493.0 pg/ml and 17222.7 pg/ml (2×)
- Leptin Concentration (pg/ml), Mean ([2]; test article 5 nM): 15505.7 pg/mL
- Leptin Concentration (pg/ml), single replicates ([2]; test article 5 nM): 19789.4 pg/mL and 12493.0 pg/mL and 14234.9 pg/mL
- Leptin Concentration (pg/ml), Mean ([2]; test article 50 nM): 18458.0 pg/mL
- Leptin Concentration (pg/ml), single replicates ([2]; test article 50 nM): 15795.3 pg/ml and 19789.4 pg/ml (2×)
- Leptin Concentration (pg/ml), Mean ([2]; test article 500 nM): 10678.9 pg/mL
- Leptin Concentration (pg/ml), single replicates ([2]; test article 500 nM): 17222.7 pg/mL and 4332.6 pg/mL and 10481.4 pg/mL
